The test system of data set [1] is ethanolamine-specific phospholipid base exchange reaction. The following applies: rat liver microsomes; cited from earlier work.
The target in a further data set is T1, cytochrome P4504A1 (Rattus norvegicus, UniProt P08516).
T1 sequence (P08516 1-509): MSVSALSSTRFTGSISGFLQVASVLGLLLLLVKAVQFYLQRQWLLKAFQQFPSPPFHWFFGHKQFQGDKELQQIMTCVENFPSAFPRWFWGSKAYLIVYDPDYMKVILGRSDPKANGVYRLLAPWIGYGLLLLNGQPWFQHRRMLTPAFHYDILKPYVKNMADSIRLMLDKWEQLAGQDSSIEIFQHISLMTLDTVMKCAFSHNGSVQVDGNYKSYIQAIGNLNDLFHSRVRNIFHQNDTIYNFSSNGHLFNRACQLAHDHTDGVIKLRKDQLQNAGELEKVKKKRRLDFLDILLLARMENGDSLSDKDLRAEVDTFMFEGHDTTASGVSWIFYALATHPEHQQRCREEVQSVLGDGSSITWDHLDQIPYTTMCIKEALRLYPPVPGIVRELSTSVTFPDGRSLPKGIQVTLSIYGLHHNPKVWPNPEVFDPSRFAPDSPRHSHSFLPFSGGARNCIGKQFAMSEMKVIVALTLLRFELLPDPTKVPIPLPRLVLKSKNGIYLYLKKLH
To be noted: cited from earlier work.

In another data set the test system is C. tomentosicollis eggs. To be noted: cited from earlier work.
Data set [2] deals with T2, Cytochrome P4504A4 (CYP4A4) (Oryctolagus cuniculus, UniProt P10611).
T2 sequence (P10611 5-510): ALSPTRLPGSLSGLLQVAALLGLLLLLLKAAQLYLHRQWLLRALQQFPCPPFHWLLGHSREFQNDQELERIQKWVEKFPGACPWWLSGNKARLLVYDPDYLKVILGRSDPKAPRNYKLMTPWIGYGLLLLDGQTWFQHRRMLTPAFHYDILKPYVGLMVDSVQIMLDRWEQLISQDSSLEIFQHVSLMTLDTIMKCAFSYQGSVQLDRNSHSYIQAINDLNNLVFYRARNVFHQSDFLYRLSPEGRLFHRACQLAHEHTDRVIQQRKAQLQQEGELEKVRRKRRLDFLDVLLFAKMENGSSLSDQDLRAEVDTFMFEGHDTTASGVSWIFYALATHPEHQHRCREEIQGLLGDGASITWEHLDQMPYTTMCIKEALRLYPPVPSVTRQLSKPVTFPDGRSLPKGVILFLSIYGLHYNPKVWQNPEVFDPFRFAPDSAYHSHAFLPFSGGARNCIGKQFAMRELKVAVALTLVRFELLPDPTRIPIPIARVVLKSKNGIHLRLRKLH
To be noted: cited from earlier work.

For a further data set, the system named is Fe(III)-LOX. To be noted: cited from earlier work.
Data set [3] is described as follows: Net charge of cationic lipid. It counts as physicochemical. To be noted: pH 7.4. An excerpt:
The monoacetylenic analogues of DOPC, DOPE, DODAP and DOTAP were synthesised as described above. Standard lipids for comparisons (DOPC, DOPE and DOTAP (chloride salt)) were purchased from Sigma-Aldrich, Poole, Dorset, UK. Our invention the cationic, cholesterol-based lipid N^1-cholesteryloxycarbonyl-3,7-diazanononane-1,9-diamine (CDAN)—net charge=+1.6 at pH 7.4.CDAN (below) was synthesised by our group previously,^22 and is now available in a 1:1 molar ratio formulation with DOPE as Trojene™ (Avanti Polar Lipids, Inc., Alabaster, Ala., USA). [drawing 40]

Another data set addresses T3, DNA polymerase α (Homo sapiens, UniProt P09884).
T3 sequence (P09884 1-1462): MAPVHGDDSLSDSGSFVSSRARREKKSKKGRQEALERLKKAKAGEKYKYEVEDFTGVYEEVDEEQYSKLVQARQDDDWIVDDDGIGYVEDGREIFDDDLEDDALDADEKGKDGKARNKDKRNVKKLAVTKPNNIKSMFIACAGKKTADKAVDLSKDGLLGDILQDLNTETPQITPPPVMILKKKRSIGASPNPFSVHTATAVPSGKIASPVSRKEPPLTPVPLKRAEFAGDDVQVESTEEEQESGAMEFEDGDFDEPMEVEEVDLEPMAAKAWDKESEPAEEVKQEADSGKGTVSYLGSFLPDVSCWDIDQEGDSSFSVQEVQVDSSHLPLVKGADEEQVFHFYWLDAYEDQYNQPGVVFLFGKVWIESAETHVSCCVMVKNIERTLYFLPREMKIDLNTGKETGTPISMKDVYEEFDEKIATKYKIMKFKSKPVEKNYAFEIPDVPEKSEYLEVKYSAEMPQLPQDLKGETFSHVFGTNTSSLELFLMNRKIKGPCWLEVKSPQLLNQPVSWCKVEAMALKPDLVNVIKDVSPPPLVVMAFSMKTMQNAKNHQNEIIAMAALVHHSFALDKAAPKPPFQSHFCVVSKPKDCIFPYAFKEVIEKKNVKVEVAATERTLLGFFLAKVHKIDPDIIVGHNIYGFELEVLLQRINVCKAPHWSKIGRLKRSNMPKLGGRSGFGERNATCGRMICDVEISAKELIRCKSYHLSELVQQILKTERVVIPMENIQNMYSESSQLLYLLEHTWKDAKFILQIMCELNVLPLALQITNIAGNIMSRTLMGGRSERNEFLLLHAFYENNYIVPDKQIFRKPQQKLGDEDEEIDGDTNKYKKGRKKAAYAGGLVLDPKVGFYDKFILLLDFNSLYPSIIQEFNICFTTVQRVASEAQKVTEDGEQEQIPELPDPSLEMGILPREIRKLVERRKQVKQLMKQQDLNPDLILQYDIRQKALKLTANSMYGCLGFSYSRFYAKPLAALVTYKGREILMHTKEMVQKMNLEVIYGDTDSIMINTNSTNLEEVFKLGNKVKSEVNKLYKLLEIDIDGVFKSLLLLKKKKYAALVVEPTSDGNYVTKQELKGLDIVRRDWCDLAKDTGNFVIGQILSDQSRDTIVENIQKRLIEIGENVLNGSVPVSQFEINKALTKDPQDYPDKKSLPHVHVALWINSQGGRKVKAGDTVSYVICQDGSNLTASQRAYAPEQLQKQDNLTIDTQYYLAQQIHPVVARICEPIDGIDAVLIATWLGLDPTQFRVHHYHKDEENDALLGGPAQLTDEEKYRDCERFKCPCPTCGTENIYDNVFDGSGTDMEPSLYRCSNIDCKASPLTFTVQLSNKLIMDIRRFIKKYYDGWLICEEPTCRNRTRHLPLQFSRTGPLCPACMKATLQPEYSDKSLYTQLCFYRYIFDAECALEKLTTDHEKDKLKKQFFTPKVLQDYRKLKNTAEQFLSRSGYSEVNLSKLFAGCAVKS
To be noted: cited from earlier work.

For the next data set, the target named is T4, DNA topoisomerase I (Homo sapiens, UniProt P11387).
T4 sequence (P11387 1-765): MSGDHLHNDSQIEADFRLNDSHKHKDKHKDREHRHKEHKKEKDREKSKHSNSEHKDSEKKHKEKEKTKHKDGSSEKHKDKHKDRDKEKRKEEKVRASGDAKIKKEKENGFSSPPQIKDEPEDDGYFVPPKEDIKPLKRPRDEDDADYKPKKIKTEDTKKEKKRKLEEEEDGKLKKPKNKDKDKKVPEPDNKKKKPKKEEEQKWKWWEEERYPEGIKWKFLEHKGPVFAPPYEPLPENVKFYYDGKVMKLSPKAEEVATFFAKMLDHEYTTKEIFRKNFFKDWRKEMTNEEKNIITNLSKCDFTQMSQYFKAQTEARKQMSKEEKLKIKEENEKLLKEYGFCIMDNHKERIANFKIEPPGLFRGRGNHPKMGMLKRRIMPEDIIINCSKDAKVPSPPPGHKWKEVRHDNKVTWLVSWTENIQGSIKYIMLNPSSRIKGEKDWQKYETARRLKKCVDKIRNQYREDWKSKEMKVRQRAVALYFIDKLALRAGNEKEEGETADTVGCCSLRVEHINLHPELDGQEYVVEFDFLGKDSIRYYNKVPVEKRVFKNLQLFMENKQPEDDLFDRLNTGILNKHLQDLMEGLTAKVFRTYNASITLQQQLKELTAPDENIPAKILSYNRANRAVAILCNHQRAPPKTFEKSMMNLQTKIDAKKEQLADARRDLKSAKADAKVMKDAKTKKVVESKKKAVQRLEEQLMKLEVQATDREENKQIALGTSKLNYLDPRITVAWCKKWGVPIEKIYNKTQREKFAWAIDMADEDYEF
To be noted: cited from earlier work.

The target of another data set is DNA. To be noted: read-out: apparent DNA dissociation constant; cited from earlier work.
The subject of the next data set is cyclo-oxygenase. The following applies: cited from earlier work.
A further data set addresses T5, 5-lipoxygenase (Homo sapiens, UniProt P09917).
T5 sequence (P09917 1-674): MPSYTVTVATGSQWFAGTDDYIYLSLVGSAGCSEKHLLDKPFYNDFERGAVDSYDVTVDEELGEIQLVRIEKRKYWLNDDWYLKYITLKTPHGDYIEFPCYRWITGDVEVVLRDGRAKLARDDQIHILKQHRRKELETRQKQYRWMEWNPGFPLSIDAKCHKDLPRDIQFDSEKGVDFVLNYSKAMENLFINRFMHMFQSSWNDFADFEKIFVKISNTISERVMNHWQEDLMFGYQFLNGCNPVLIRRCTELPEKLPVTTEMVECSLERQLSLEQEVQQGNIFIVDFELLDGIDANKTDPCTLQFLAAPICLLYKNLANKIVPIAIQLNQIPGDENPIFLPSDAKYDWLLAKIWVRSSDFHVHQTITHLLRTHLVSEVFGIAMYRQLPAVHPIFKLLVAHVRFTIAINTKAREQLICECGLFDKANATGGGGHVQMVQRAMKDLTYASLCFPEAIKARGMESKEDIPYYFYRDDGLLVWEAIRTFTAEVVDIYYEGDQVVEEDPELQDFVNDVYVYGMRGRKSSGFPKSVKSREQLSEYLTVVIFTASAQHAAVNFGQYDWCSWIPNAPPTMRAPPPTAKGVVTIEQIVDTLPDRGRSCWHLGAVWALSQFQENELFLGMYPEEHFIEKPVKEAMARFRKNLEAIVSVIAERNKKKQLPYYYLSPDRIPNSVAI
The following applies: cited from earlier work.

Data set [4] relates to hepatic glutathione S-transferases. The following applies: cited from earlier work.

Each structure is given as a SMILES string.

As to `C#CCCCCCCCCC(=O)O` [Undeca-10-ynoic acid], in data set [1], the “Ethanolamine-specific phospholipid base exchange reaction” value is “inhibits”. For the same compound, the “Inhibition of cytochrome P4504A1” value at cytochrome P4504A1 was “inhibitor”.

Consider `CCCCCCCCCCCCC#CCCCC(=O)O` [Octadeca-5-ynoic acid], for which, in the data set with C. tomentosicollis eggs, the “Hatching of C. tomentosicollis eggs” value is listed as “inhibits the hatching”.

With `C#CCCCCCCCCCCCCCCCC(=O)O` [Octadeca-17-ynoic acid], the “Inhibition of the substrate-binding pocket of CYP4A4” value in [2] was “effective inhibitor”.

As to `CCCCCC#CCC#CCCCCCCCC(=O)O` [octadeca-9,12-diynoic acid], the “Inactivation of Fe(III)-LOX” value in the data set with Fe(III)-LOX is reported as “irreversibly inactivates”.

Consider `CC(C)CCC[C@@H](C)[C@H]1CC[C@H]2[C@@H]3CC=C4C[C@@H](OC(=O)NCCNCCCNCCN)CC[C@]4(C)[C@H]3CC[C@]12C` [CDAN, N^1-cholesteryloxycarbonyl-3,7-diazanononane-1,9-diamine], for which the net charge entry in data set [3] is listed as “+1.6”.

Consider `CCCCCCCCC#CCCCCCCCC(=O)O` [Octadeca-9-ynoic acid, octadeca-9-ynoic acid], for which the “Inhibition of DNA polymerase α” value on DNA polymerase α was “weakly inhibitory”. Also, on DNA topoisomerase I, the “DNA topoisomerase I-mediated relaxation of a supercoiled plasmid DNA” value is on record as “does not inhibit” and the “topisomerase I-mediated DNA filter binding” value is “inhibits”. For the same compound, the Kd at DNA is 1800 µM.

Turning to `CCCCCC#CC#CC#CCCCCCCC(=O)O` [octadeca-8,10,12-triynoic acid], the Inhibition of cyclo-oxygenase result in the data set on cyclo-oxygenase is “potent inhibitors”. At 5-lipoxygenase, the “Inhibition of 5-lipoxygenase” value was “weak inhibitors”.

Take `CCCCCCCCC#CCC#CCC#CCCCC(=O)O` [eicosa-5,8,11-triynoic acid]: the “Inhibition of mammalian hepatic glutathione S-transferases” value in data set [4] is listed as “inhibits”.

The values are drawn from patent publication US20040219202A1, “Pharmaceutical composition comprising lipids comprising a polar and a nonpolar moiety” (priority 2001, published 2004).
